We go through 5 compounds from patent US20230295152A1 (SENDA BIOSCIENCES, INC., priority 2019, published 2023).

Assay type in all cases: in vitro ADME
The nature of data set [1]: Plasma Protein Binding with Ultracentrifugation Method, human. As to conditions: for fraction unbound at 30 min, 1 μM: human plasma, read-out: Human plasma protein binding (% bound). The procedure: (§1) The frozen plasma (stored at −80° C.) was thawed in a 37° C. water bath, followed by centrifugation at 3,220 g for 10 minutes to remove clots. The supernatant was removed into a new tube as the spun plasma. The spun plasma was pre-warmed in a 37° C. water bath for 10 minutes. The stock solutions of test compounds were diluted to 200 μM in DMSO, and then spiked into the plasma. Duplicate samples were prepared. The final concentration of compound was 1.0 μM. The final concentration of organic solvent was 0.5%. Warfarin was used as positive control in the assay. 1.0 mL of the spiked plasma was transferred to a new balance ultracentrifuge tube. Samples were incubated at 37° C., 5% CO2 for 30 minutes. After incubation, the balance ultracentrifuge tubes were centrifuged at 600,000 g for 5.5 hours at 37° C. After centrifugation, 50 μL solution was removed from the center of the ultracentrifuge tubes as the post-ultracentrifugation samples, followed by the addition of 50 μL blank plasma and 400 μL quench solution (acetonitrile containing internal standards (IS, 100 nM Alprazolam, 500 nM Labetalol and 2 μM Ketoprofen)) to precipitate protein and release compounds. Samples were vortexed for 2 minutes, followed by centrifugation at 20,000 g for 15 minutes at room temperature. The supernatant was diluted with ultrapure water and then used for LC-MS/MS analysis. Stability samples was prepared by transferring 50 μL of the spiked plasma to 0.6 mL tubes and incubated at 37° C., 5% CO2 for 0.5 and 6 hours. After incubation, 50 μL PBS (100 mM, pH7.4) and 400 μL quench solution were added to the stability samples. And then stability samples were treated the same way as the post-ultracentrifugation samples. The supernatant was diluted with ultrapure water and then used for LC-MS/MS analysis. 0.5 hour time point samples were also used as no-spun controls. Time 0 samples were prepared by transferring 50 μL spiked plasma to 0.6 mL tubes containing 50 μL PBS, followed by the addition of 400 μL quench solution to precipitate protein and release compound. And then these samples were treated the same way as the post-ultracentrifugation samples. The supernatant was diluted with ultrapure water and then used for LC-MS/MS analysis.
(§2) Data Analysis: All calculations were carried out using Microsoft Excel. The concentrations of test compound in plasma samples and post-ultracentrifugation plasma was determined from peak areas. The percentages of test compound bound was calculated as follows: […]
(§3) “+++” indicates a % bound value less than 50, “++” indicates a % bound value between 50 and 75, and “+” indicates a % bound value above 75.

In another data set the target is T1, CYP2D6 (Homo sapiens, UniProt P10635).
T1 construct: from tissue; host or cells: human liver microsomes (HLM)
The data set can be described thus: CYP Inhibition Assay in human liver microsomes, CYP2D6. As to conditions: pH 7.4. The procedure:
Stock solutions of test compounds were prepared in DMSO at the concentrations of 10 mM. Stock solution was diluted to 2 mM with acetonitrile. The final concentration of test compounds was 10 μM. For the stock solution preparation, if the positive control could not be well dissolved in the mixture of DMSO and acetonitrile (1:4) at the highest concentration, another mixture of acetonitrile and DMSO, the mixture of acetonitrile and H2O or DMSO will be used to dissolve the compound.
The substrate solutions are stored in a −20° C. freezer and warmed to room temperature prior to use.
Preparation of Phosphate Buffer (100 mmol/L, pH 7.4): To prepare the Solution A, 7.098 g of disodium hydrogen phosphate were weighed out and added into 500 mL of pure water, then sonicated to dissolve the content. To prepare the Solution B, 3.400 g of potassium dihydrogen phosphate were weighed out and added into 250 mL of pure water, then sonicated to dissolve the content. Solution A was placed on a stirrer and slowly Solution B was added into Solution A until the pH reached 7.4. Preparation of 10 mmol/L NADPH Solution: NADPH was dissolved at 8.334 mg/mL in phosphate buffer; the solution was freshly prepared prior to use.
The master solution was prepared according to Table 45. The incubation was carried out in 96 deep well plates. The following volumes were dispensed into each well of the incubation plate: 179 μL of the substrate and HLM mixture in phosphate buffer, 1 μL of the compound working solution, or vehicle (mixture of DMSO and acetonitrile (1:4)). The incubation plate was placed into the water bath and pre-warmed at 37° C. for 15 minutes before the reactions was started by the addition of 20 μL of 10 mmol/L NADPH solution in phosphate buffer. After the addition of NADPH, the incubation plate was incubated at 37° C. for corresponding time. The assay was performed in duplicate.
The reaction was quenched by the addition of 1.5 volume (300 μL) of cold acetonitrile containing 3% formic acid and internal standards (200 nM Labetalol, 200 nM Alprazolam and 200 nM tolbutamide). The plate was centrifuged at 3,220 g for 40 minutes. 100 μL of the supernatant was transferred to a new plate. The supernatant was diluted with 100 μL pure water. The samples were mixed well and analyzed using UPLC/MS/MS.
Data Analysis: The automatic peak integration areas are checked for all the samples. The Analyte Peak Area and Internal Standard Peak Area are exported into excel spreadsheet. The inhibition of each P450 enzyme in human liver microsomes is measured as the percentage decrease in the activity of marker metabolite formation compared to non-inhibited controls (=100% activity).
The percentage of remaining activity was calculated as follows:
Area Ratio=Peak Area Analyte/Peak Area Internal Standard Remaining Activity (%)=Area Ratio test compound/Area Ratio vehicle*100% Inhibition %=100-Remaining Activity (%)

A short description of data set [2]: Plasma Protein Binding with Ultracentrifugation Method, mouse. As to conditions: for fraction unbound at 30 min, 1 μM: mouse plasma, read-out: Mouse plasma protein binding (% bound). The procedure: as §1, §2, §3
Data set [3] is described as follows: Hepatocyte Stability Assay, human. As to conditions: for CLint scaled: human, plated hepatocytes.
Setting [4] is: plated hepatocyte, Pharmaron assay, read-out: Human hepatocyte clearance Plated hepatocyte Pharmaron assay.

Broadly, the inhibition is the relative decrease from the control value, in per cent. A low value points to a response near the control.

Read-outs that look alike come from different tables or passages of the source. Bounds are passed on as bounds.

T1 sequence (P10635 whole entry): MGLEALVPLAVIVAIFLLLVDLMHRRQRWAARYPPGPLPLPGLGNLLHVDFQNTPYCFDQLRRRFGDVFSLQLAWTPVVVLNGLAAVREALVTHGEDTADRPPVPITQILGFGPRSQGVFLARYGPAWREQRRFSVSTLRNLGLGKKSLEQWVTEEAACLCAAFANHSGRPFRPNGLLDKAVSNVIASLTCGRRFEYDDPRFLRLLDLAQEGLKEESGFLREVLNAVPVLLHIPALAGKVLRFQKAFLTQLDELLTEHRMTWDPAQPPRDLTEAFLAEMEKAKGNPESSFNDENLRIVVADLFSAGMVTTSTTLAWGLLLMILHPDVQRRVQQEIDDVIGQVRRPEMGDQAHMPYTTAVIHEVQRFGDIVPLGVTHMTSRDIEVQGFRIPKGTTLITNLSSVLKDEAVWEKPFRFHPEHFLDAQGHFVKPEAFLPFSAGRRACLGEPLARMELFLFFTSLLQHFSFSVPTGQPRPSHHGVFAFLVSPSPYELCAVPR

Turning to `C[C@@H](CO)n1cnc2c(-c3cccnc3)nc(-c3ccc(C(F)(F)F)cn3)cc2c1=O` [Compound 46, (S)-3-(1-hydroxypropan-2-yl)-8-(pyridin-3-yl)-6-(5-(trifluoromethyl)pyridin-2-yl)pyrido[3,4-d]pyrimidin-4(3H)-one], the fraction unbound at 30 min, 1 μM in data set [1] and in data set [2] was under 0.25 in each case. In addition, the fraction unbound at 5.5 h, 1 μM was 0.108 in data set [1] (human, plasma, read-out: Plasma Protein Binding PPB (h) % (converted)) and 0.075 in data set [2] (mouse, plasma, read-out: Plasma Protein Binding PPB (m) % (converted)). For the same compound, the inhibition at 10 µM against CYP2D6 stood at 7.43%. Besides, the CLint scaled in data set [3] (setting [4]) was under 20 mL/min/kg. Besides, in data set [3] (plated hepatocyte, Alliance assay), the “Human hepatocyte clearance Plated hepatocyte Alliance assay” value is given as “+++ (“+++” indicates a CLint value less than 20 mL/min/Kg)”. Moreover, the “Plated heps (% Qh)” value in data set [3] (plated human hepatocytes) is under 1 % Qh. The “Plated heps (% Qh), All” value in data set [3] (plated human hepatocytes, value in brackets marked "All") is reported as 1.0 % Qh.

With `C[C@@H](CO)n1cnc2c(-c3cnn(C)c3)nc(-c3ccc(C(F)(F)F)nc3)cc2c1=O` [Compound 68], the fraction unbound at 30 min, 1 μM in data set [1] and in data set [2] was under 0.25 in each case. The inhibition at 10 µM at CYP2D6 is 10.9%. For the same compound, in data set [3] (plated hepatocyte, Alliance assay, read-out: Human hepatocyte clearance Plated hepatocyte Alliance assay), the CLint scaled was under 20 mL/min/kg.

For `O=c1c2cc(-c3ccc(C(F)(F)F)nc3)nc(-c3cccnc3)c2ncn1[C@@H]1COC[C@H]1O` [Compound 79], the fraction unbound at 30 min, 1 μM in data set [1] and in data set [2] was under 0.25 in each case. At CYP2D6, the inhibition at 10 µM came to 8%. In data set [3] (setting [4]), the CLint scaled is under 20 mL/min/kg.

In the case of `CC(C)(O)Cn1cnc2c(-c3cccnc3)nc(-c3ccc(C(F)(F)F)cn3)cc2c1=O` [Compound 105], the fraction unbound at 30 min, 1 μM in data set [1] and in data set [2] was under 0.25 in each case. This compound had an inhibition at 10 µM on CYP2D6 of 2.73%. Moreover, the CLint scaled in data set [3] (setting [4]) was under 20 mL/min/kg.

As for `O=c1c2cc(-c3ccc(Cl)cc3)nc(-c3cccnc3)c2ncn1[C@H]1COC[C@@H]1O` [Compound 125, 6-(4-chlorophenyl)-3-((3S,4R)-4-hydroxytetrahydrofuran-3-yl)-8-(pyridin-3-yl)pyrido[3,4-d]pyrimidin-4(3H)-one], the fraction unbound at 30 min, 1 μM in data set [1] and in data set [2] was under 0.25 in each case. The same compound came in with an inhibition at 10 µM on CYP2D6 of 20.6%. Moreover, the CLint scaled in data set [3] (setting [4]) is under 20 mL/min/kg.
